Measurements: the supplement of paper PMC10307832

Tests used:
Test in all cases: relative viability (nuclei count vs DMSO), 5 days (fraction); higher = more cells survive
[1] = tested on: CAL-12T
In short: (§1)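 Relative viability equals treated-well nuclei counts divided by vehicle-well nuclei counts. Counts came from 4× images of lung cancer cell lines grown in 1536-well plates for 5 days after pin-tool dosing on the day after seeding. Dosing used one drug alone or a fixed anchor-drug dose plus five library-drug doses (not always all listed) in √10 steps, and values are medians of duplicate plates.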

[2] = tested on: COR-L 105
In short: as §1

[3] = tested on: H3255
In short: as §1

[4] = tested on: HARA
In short: as §1

[5] = tested on: HCC-15
In short: as §1

[6] = tested on: HCC-366
In short: as §1

[7] = tested on: LC-2-ad
In short: as §1

[8] = tested on: LU99A
In short: as §1

[9] = tested on: NCI-H1395
In short: as §1

[10] = tested on: NCI-H1666
In short: as §1

[11] = tested on: NCI-H1734
In short: as §1

[12] = tested on: NCI-H1944
In short: as §1

[13] = tested on: NCI-H1975
In short: as §1

[14] = tested on: NCI-H1993
In short: as §1

[15] = tested on: NCI-H2228
In short: as §1

[16] = tested on: NCI-H3122
In short: as §1

[17] = tested on: NCI-H520
In short: as §1

[18] = tested on: NCI-H647
In short: as §1

[19] = tested on: NCI-H661
In short: as §1

[20] = tested on: NCI-H838
In short: as §1

[21] = tested on: PC-14
In short: as §1

[22] = tested on: PC-3 [JPC-3]
In short: as §1

[23] = tested on: SK-LU-1
In short: as §1

Cc1cnc(-c2cnc(NCCNc3ccc(C#N)cn3)nc2-c2ccc(Cl)cc2Cl)[nH]1 + CC(=O)c1c(C)c2cnc(Nc3ccc(N4CCNCC4)cn3)nc2n(C2CCCC2)c1=O [Palbociclib] (partner 0.5 µM)
relative viability ([1]; first compound 0.08 µM): 0.43
relative viability ([1]; first compound 0.253 µM): 0.413
relative viability ([1]; first compound 0.8 µM): 0.37
relative viability ([1]; first compound 2.53 µM): 0.286
relative viability ([2]; first compound 0.08 µM): 0.397
relative viability ([2]; first compound 0.253 µM): 0.401
relative viability ([2]; first compound 0.8 µM): 0.382
relative viability ([2]; first compound 2.53 µM): 0.404
relative viability ([3]; first compound 0.08 µM): 0.299
relative viability ([3]; first compound 0.253 µM): 0.34
relative viability ([3]; first compound 0.8 µM): 0.317
relative viability ([3]; first compound 2.53 µM): 0.306
relative viability ([4]; first compound 0.08 µM): 0.296
relative viability ([4]; first compound 0.253 µM): 0.288
relative viability ([4]; first compound 0.8 µM): 0.262
relative viability ([4]; first compound 2.53 µM): 0.241
relative viability ([5]; first compound 0.08 µM): 0.689
relative viability ([5]; first compound 0.253 µM): 0.543
relative viability ([5]; first compound 0.8 µM): 0.69
relative viability ([5]; first compound 2.53 µM): 0.724
relative viability ([6]; first compound 0.08 µM): 0.404
relative viability ([6]; first compound 0.253 µM): 0.331
relative viability ([6]; first compound 0.8 µM): 0.391
relative viability ([6]; first compound 2.53 µM): 0.312
relative viability ([7]; first compound 0.08 µM): 0.473
relative viability ([7]; first compound 0.8 µM): 0.485
relative viability ([7]; first compound 2.53 µM): 0.436
relative viability ([8]; first compound 0.08 µM): 0.375
relative viability ([8]; first compound 0.253 µM): 0.388
relative viability ([8]; first compound 0.8 µM): 0.442
relative viability ([8]; first compound 2.53 µM): 0.389
relative viability ([9]; first compound 0.08 µM): 0.762
relative viability ([9]; first compound 0.253 µM): 0.619
relative viability ([9]; first compound 0.8 µM): 0.609
relative viability ([9]; first compound 2.53 µM): 0.65
relative viability ([10]; first compound 0.08 µM): 0.607
relative viability ([10]; first compound 0.253 µM): 0.626
relative viability ([10]; first compound 0.8 µM): 0.615
relative viability ([10]; first compound 2.53 µM): 0.609
relative viability ([11]; first compound 0.08 µM): 0.403
relative viability ([11]; first compound 0.253 µM): 0.342
relative viability ([11]; first compound 0.8 µM): 0.391
relative viability ([11]; first compound 2.53 µM): 0.189
relative viability ([12]; first compound 0.08 µM): 0.341
relative viability ([12]; first compound 0.8 µM): 0.366
relative viability ([12]; first compound 2.53 µM): 0.322
relative viability ([13]; first compound 0.08 µM): 0.69
relative viability ([13]; first compound 0.253 µM): 0.519
relative viability ([13]; first compound 0.8 µM): 0.487
relative viability ([13]; first compound 2.53 µM): 0.301
relative viability ([14]; first compound 0.08 µM): 0.718
relative viability ([14]; first compound 0.253 µM): 0.566
relative viability ([14]; first compound 0.8 µM): 0.621
relative viability ([14]; first compound 2.53 µM): 0.679
relative viability ([15]; first compound 0.08 µM): 0.83
relative viability ([15]; first compound 0.253 µM): 0.716
relative viability ([15]; first compound 0.8 µM): 0.734
relative viability ([15]; first compound 2.53 µM): 0.648
relative viability ([16]; first compound 0.08 µM): 0.178
relative viability ([16]; first compound 0.8 µM): 0.181
relative viability ([16]; first compound 2.53 µM): 0.188
relative viability ([17]; first compound 0.08 µM): 0.332
relative viability ([17]; first compound 0.253 µM): 0.202
relative viability ([17]; first compound 0.8 µM): 0.224
relative viability ([17]; first compound 2.53 µM): 0.265
relative viability ([18]; first compound 0.08 µM): 0.434
relative viability ([18]; first compound 0.253 µM): 0.303
relative viability ([18]; first compound 0.8 µM): 0.419
relative viability ([18]; first compound 2.53 µM): 0.393
relative viability ([19]; first compound 0.08 µM): 0.44
relative viability ([19]; first compound 0.253 µM): 0.433
relative viability ([19]; first compound 0.8 µM): 0.432
relative viability ([19]; first compound 2.53 µM): 0.506
relative viability ([20]; first compound 0.08 µM): 0.259
relative viability ([20]; first compound 0.253 µM): 0.256
relative viability ([20]; first compound 0.8 µM): 0.253
relative viability ([20]; first compound 2.53 µM): 0.389
relative viability ([21]; first compound 0.08 µM): 0.572
relative viability ([21]; first compound 0.253 µM): 0.503
relative viability ([21]; first compound 0.8 µM): 0.614
relative viability ([21]; first compound 2.53 µM): 0.323
relative viability ([22]; first compound 0.08 µM): 0.533
relative viability ([22]; first compound 0.253 µM): 0.488
relative viability ([22]; first compound 0.8 µM): 0.543
relative viability ([22]; first compound 2.53 µM): 0.503
relative viability ([23]; first compound 0.08 µM): 0.417
relative viability ([23]; first compound 0.253 µM): 0.474
relative viability ([23]; first compound 0.8 µM): 0.337
relative viability ([23]; first compound 2.53 µM): 0.524

Cc1cnc(-c2cnc(NCCNc3ccc(C#N)cn3)nc2-c2ccc(Cl)cc2Cl)[nH]1 + O=C(c1cc(Cc2n[nH]c(=O)c3ccccc23)ccc1F)N1CCN(C(=O)C2CC2)CC1 [Olaparib] (partner 8 µM)
relative viability ([1]; first compound 0.08 µM): 0.686
relative viability ([1]; first compound 0.253 µM): 0.698
relative viability ([1]; first compound 0.8 µM): 0.802
relative viability ([1]; first compound 2.53 µM): 0.756
relative viability ([2]; first compound 0.08 µM): 0.734
relative viability ([2]; first compound 0.253 µM): 0.711
relative viability ([2]; first compound 0.8 µM): 0.642
relative viability ([2]; first compound 2.53 µM): 0.691
relative viability ([3]; first compound 0.08 µM): 0.585
relative viability ([3]; first compound 0.253 µM): 0.543
relative viability ([3]; first compound 0.8 µM): 0.542
relative viability ([3]; first compound 2.53 µM): 0.563
relative viability ([4]; first compound 0.08 µM): 0.509
relative viability ([4]; first compound 0.253 µM): 0.72
relative viability ([4]; first compound 0.8 µM): 0.764
relative viability ([4]; first compound 2.53 µM): 0.894
relative viability ([5]; first compound 0.08 µM): 0.77
relative viability ([5]; first compound 0.253 µM): 0.653
relative viability ([5]; first compound 0.8 µM): 0.721
relative viability ([5]; first compound 2.53 µM): 0.737
relative viability ([6]; first compound 0.08 µM): 0.375
relative viability ([6]; first compound 0.253 µM): 0.297
relative viability ([6]; first compound 0.8 µM): 0.338
relative viability ([7]; first compound 0.08 µM): 0.657
relative viability ([7]; first compound 0.8 µM): 0.73
relative viability ([7]; first compound 2.53 µM): 0.645
relative viability ([8]; first compound 0.08 µM): 0.254
relative viability ([8]; first compound 0.253 µM): 0.256
relative viability ([8]; first compound 0.8 µM): 0.231
relative viability ([8]; first compound 2.53 µM): 0.253
relative viability ([9]; first compound 0.08 µM): 0.496
relative viability ([9]; first compound 0.253 µM): 0.435
relative viability ([9]; first compound 0.8 µM): 0.504
relative viability ([9]; first compound 2.53 µM): 0.47
relative viability ([10]; first compound 0.08 µM): 0.775
relative viability ([10]; first compound 0.253 µM): 0.732
relative viability ([10]; first compound 0.8 µM): 0.765
relative viability ([10]; first compound 2.53 µM): 0.781
relative viability ([11]; first compound 0.08 µM): 0.635
relative viability ([11]; first compound 0.253 µM): 0.622
relative viability ([11]; first compound 0.8 µM): 0.644
relative viability ([11]; first compound 2.53 µM): 0.516
relative viability ([12]; first compound 0.08 µM): 0.446
relative viability ([12]; first compound 0.8 µM): 0.42
relative viability ([12]; first compound 2.53 µM): 0.413
relative viability ([13]; first compound 0.08 µM): 0.759
relative viability ([13]; first compound 0.253 µM): 0.715
relative viability ([13]; first compound 0.8 µM): 0.672
relative viability ([13]; first compound 2.53 µM): 0.502
relative viability ([14]; first compound 0.08 µM): 1.1
relative viability ([14]; first compound 0.253 µM): 0.855
relative viability ([14]; first compound 0.8 µM): 1.13
relative viability ([14]; first compound 2.53 µM): 1.2
relative viability ([15]; first compound 0.08 µM): 0.56
relative viability ([15]; first compound 0.253 µM): 0.332
relative viability ([15]; first compound 0.8 µM): 0.732
relative viability ([15]; first compound 2.53 µM): 0.419
relative viability ([16]; first compound 0.08 µM): 0.568
relative viability ([16]; first compound 0.8 µM): 0.651
relative viability ([16]; first compound 2.53 µM): 0.545
relative viability ([17]; first compound 0.08 µM): 0.366
relative viability ([17]; first compound 0.253 µM): 0.3
relative viability ([17]; first compound 0.8 µM): 0.354
relative viability ([17]; first compound 2.53 µM): 0.311
relative viability ([18]; first compound 0.08 µM): 0.528
relative viability ([18]; first compound 0.253 µM): 0.558
relative viability ([18]; first compound 0.8 µM): 0.528
relative viability ([18]; first compound 2.53 µM): 0.429
relative viability ([19]; first compound 0.08 µM): 0.736
relative viability ([19]; first compound 0.253 µM): 0.759
relative viability ([19]; first compound 0.8 µM): 0.7
relative viability ([19]; first compound 2.53 µM): 0.654
relative viability ([20]; first compound 0.08 µM): 0.756
relative viability ([20]; first compound 0.253 µM): 0.768
relative viability ([20]; first compound 0.8 µM): 0.796
relative viability ([20]; first compound 2.53 µM): 0.75
relative viability ([21]; first compound 0.08 µM): 0.242
relative viability ([21]; first compound 0.253 µM): 0.235
relative viability ([21]; first compound 0.8 µM): 0.296
relative viability ([21]; first compound 2.53 µM): 0.233
relative viability ([22]; first compound 0.08 µM): 1.1
relative viability ([22]; first compound 0.253 µM): 1.08
relative viability ([22]; first compound 0.8 µM): 1.09
relative viability ([22]; first compound 2.53 µM): 1.04
relative viability ([23]; first compound 0.08 µM): 0.455
relative viability ([23]; first compound 0.253 µM): 0.479
relative viability ([23]; first compound 0.8 µM): 0.463
relative viability ([23]; first compound 2.53 µM): 0.472
